Laboratory results taken from article PMC13400319 (Chemmedchem, 2026).
Read-outs that look alike come from different tables or passages of the source.

Target: T1, Aβ42 (Homo sapiens, UniProt P05067)
T1 construct: amyloid beta (1–42) (Aβ42) self‐aggregation; purchased GenicBio Limited (Shanghai, China)
Experiment: Inhibition of Aβ42 self-aggregation (Thioflavin T fluorescence)
Type: biochemical
Details: read-out: Inhibition of Aβ42 self-aggregation, %
Protocol: Inhibition of β-amyloid (1– 42) (Aβ42) self-aggregation
Inhibition of Aβ42 self-aggregation by test compounds was studied using the thioflavin T (ThT)
fluorescence method [8- 10] with minor modifications as described in detail in [11]. Lyophilized
HFIP- pretreated Aβ42 (GenicBio Limited (Shanghai, China), 1 mg) was dissolved in DMSO to
obtain a stable 500 μM solution.
pH 8.0 were incubated for 24 h at 37°C in the absence or presence of 100 μM test compounds.
Myricetin in the same concentration was used as reference. After incubation, 5 μM ThT in 50
mM glycine-NaOH buffer pH 8.5 was added, and the fluorescence was measured at 440 nm
Each assay was run in triplicate. The degree of
inhibition of Aβ42 self-aggregation by the studied compounds (%) was calculated by the
of inhibitor, respectively, after subtracting the fluorescence of respective blanks.

T1 sequence (P05067 672-713 limits assumed): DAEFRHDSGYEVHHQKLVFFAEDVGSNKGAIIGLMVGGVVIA

| Structure (SMILES) | inhibition at 100 µM (Aβ42 50 µM, compound 100 µM) | inhibition at 100 µM |
| --- | --- | --- |
| Nc1c2c(nc3c1CCC3)CCCC2 [Amiridine, amiridine] | 6.4 ± 0.5% | – |
| O=c1c(O)c(-c2cc(O)c(O)c(O)c2)oc2cc(O)cc(O)c12 [Myricetin] | – | 74.7 ± 5.2% |
